Results taken from ChEMBL document CHEMBL6103619, “Discovery of a Novel CRBN-Recruiting cGAS PROTAC Degrader for the Treatment of Ulcerative Colitis” (J Med Chem, 2025).
The source made the active and inactive calls. The rule behind the calls is not given here.

Columns and labels:
THP1-Lucia ISG = assay: Potency index, ratio of 1-(6,7-dichloro-9-(1-methyl-1H-pyrazol-3-yl)-1,3,4,5-tetrahydro-2H-pyrido[4,3-b]indol-2-yl)-2-hydroxyethan-1-one IC50 to test compound IC50 for inhibition of dsDNA-induced cGAS signaling pathway in human THP1-Lucia ISG cells preincubated with compound for 24 hrs followed by HT-DNA addition and measured after 24 hrs by QUANTI-Luc luciferase reagent based assay; type: cell-based; settings: time 48.0 hrs
[1] = biological target: T1, Protein cereblon/Cyclic GMP-AMP synthase (Homo sapiens, UniProt Q96SW2+Q8N884); assay: PROTAC activity at CRBN/cGAS in human THP-1 cells assessed as induction of cGAS degradation preincubated with compound for 40 hrs followed by HT-DNA stimulation and measured after 8 hrs by Western blot analysis; type: cell-based
[2] = biological target: T1, Protein cereblon/Cyclic GMP-AMP synthase; assay: PROTAC activity at CRBN/cGAS in human THP-1 cells assessed as induction of cGAS degradation at 10 uM preincubated with lenalidomide for 2 hrs followed by compound addition and measured after 48 hrs by Western blot analysis; type: cell-based
Target sequence in this assay (Q8N884 whole entry, looked up): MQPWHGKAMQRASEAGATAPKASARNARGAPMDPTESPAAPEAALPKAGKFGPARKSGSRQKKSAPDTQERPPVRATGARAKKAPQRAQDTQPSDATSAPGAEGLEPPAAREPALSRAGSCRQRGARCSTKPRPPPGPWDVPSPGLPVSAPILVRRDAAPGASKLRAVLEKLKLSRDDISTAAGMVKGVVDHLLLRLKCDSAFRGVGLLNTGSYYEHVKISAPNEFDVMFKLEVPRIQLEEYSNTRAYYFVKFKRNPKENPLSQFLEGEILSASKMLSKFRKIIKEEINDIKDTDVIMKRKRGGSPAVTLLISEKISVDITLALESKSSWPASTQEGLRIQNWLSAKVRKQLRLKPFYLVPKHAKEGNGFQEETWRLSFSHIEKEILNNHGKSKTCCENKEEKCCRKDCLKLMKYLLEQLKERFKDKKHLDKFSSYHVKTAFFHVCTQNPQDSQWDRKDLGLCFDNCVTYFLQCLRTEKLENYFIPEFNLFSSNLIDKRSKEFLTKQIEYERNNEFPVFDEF
Target sequence in this assay (Q96SW2 whole entry, looked up): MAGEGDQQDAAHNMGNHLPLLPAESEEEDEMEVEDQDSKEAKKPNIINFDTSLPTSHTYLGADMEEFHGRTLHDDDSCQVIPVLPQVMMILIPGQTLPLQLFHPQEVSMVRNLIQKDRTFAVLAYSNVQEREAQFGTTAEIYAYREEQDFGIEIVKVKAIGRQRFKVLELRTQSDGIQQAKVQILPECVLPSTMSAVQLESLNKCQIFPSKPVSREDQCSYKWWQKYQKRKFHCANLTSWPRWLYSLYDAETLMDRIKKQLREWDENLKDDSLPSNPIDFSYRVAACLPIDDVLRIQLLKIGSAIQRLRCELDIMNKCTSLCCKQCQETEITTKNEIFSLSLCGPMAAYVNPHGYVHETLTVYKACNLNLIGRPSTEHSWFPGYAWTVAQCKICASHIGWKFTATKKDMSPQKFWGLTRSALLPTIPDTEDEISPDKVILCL

THP-1 [3] = assay: Inhibition of ds-DNA induced cGAS-STING signaling pathway in human THP-1 cells assessed as reduction in IRF3 phosphorylation preincubated with compound for 40 hrs followed by HT-DNA addition and measured after 8 hrs by Western blot analysis; type: cell-based; settings: dose 0.7-20 µM, time 48.0 hrs
RAW264.7 [4] = assay: Inhibition of ds-DNA induced cGAS-STING signaling pathway in mouse RAW264.7 cells assessed as reduction in TBK1 phosphorylation preincubated with compound for 40 hrs followed by HT-DNA addition and measured after 8 hrs by Western blot analysis; type: cell-based; settings: dose 0.7-20 µM, time 48.0 hrs
RAW264.7 [5] = assay: Inhibition of ds-DNA induced cGAS-STING signaling pathway in mouse RAW264.7 cells assessed as reduction in IRF3 phosphorylation preincubated with compound for 40 hrs followed by HT-DNA addition and measured after 8 hrs by Western blot analysis; type: cell-based; settings: dose 0.7-20 µM, time 48.0 hrs
RAW264.7 [6] = assay: Downregulation of CXCL10 mRNA expression in mouse RAW264.7 cells preincubated with compound for 40 hrs followed by HT-DNA addition and measured after 8 hrs by qRT-PCR analysis; type: functional, cell-based; settings: dose 2.5-20 µM, time 48.0 hrs
RAW264.7 [7] = assay: Upregulation of IFNB mRNA expression level in mouse Trex1-/- RAW264.7 cells at 5 to 20 uM incubated for 24 hrs by qRT-PCR analysis; type: functional, cell-based; settings: dose 5-20 µM
THP-1 [8] = assay: Downregulation of IFNB mRNA expression level in ISD-induced human THP-1 cells at 20 uM preincubated with compound for 12 hrs followed by 45-bp immune stimulatory DNA addition and measured after 8 hrs by RT-qPCR analysis; type: functional, cell-based; settings: time 20.0 hrs
THP-1 [9] = assay: Downregulation of IFNB mRNA expression level in HSV-1-induced human THP-1 cells at 20 uM preincubated with compound for 12 hrs followed by HSV1 addition and measured after 8 hrs by RT-qPCR analysis; type: functional, cell-based; settings: time 20.0 hrs
THP-1 [10] = assay: Downregulation of IFNB mRNA expression level in HT-DNA-induced human THP-1 cells at 20 uM preincubated with compound for 12 hrs followed by HT-DNA addition and measured after 8 hrs by RT-qPCR analysis; type: functional, cell-based; settings: time 20.0 hrs
THP-1 [11] = assay: Downregulation of IFNB mRNA expression level in poly(I:C)-induced human THP-1 cells at 20 uM preincubated with compound for 12 hrs followed by poly(I:C) addition and measured after 8 hrs by RT-qPCR analysis; type: functional, cell-based; settings: time 20.0 hrs
THP-1 [12] = assay: Cytotoxicity against human THP-1 cells assessed as reduction in cell viability upto 60 uM incubated for 48 hrs by CCK8 assay; type: toxicity, cell-based; settings: thp-1, 48 h
RAW264.7 [13] = assay: Cytotoxicity against mouse RAW264.7 cells assessed as reduction in cell viability upto 60 uM incubated for 48 hrs by CCK8 assay; type: toxicity, cell-based; settings: raw264.7, 48 h
RAW264.7 [14] = assay: Cytotoxicity against mouse RAW264.7 cells assessed as reduction in cell viability at >30 uM incubated for 48 hrs by CCK8 assay; type: toxicity, cell-based; settings: raw264.7, 48 h
[15] = Cmax in male C57BL/6 mouse at 1 mg/kg, iv measured after 24 hrs by LC-MS/MS analysis; type: ADME, organism-based; settings: in vivo
[16] = AUC (0 to infinity) in male C57BL/6 mouse at 1 mg/kg, iv measured after 24 hrs by LC-MS/MS analysis; type: ADME, organism-based; settings: in vivo
[17] = Volume of distribution in male C57BL/6 mouse at 1 mg/kg, iv measured after 24 hrs by LC-MS/MS analysis; type: ADME, organism-based; settings: in vivo
[18] = Half-life in male C57BL/6 mouse at 1 mg/kg, iv measured after 24 hrs by LC-MS/MS analysis; type: ADME, organism-based; settings: in vivo
[19] = Cmax in male C57BL/6 mouse at 20 mg/kg, ip measured after 24 hrs by LC-MS/MS analysis; type: ADME, organism-based; settings: in vivo
[20] = AUC (0 to infinity) in male C57BL/6 mouse at 20 mg/kg, ip measured after 24 hrs by LC-MS/MS analysis; type: ADME, organism-based; settings: in vivo
[21] = MRT (0 to 24 hrs) in male C57BL/6 mouse at 20 mg/kg, ip measured after 24 hrs by LC-MS/MS analysis; type: ADME, organism-based; settings: in vivo
Mus musculus [22] = assay: (§1) Anti-inflammatory activity in DSS-induced ulcerative colitis C57BL/6 mouse model assessed as decrease in body weight loss at 20 to 50 mg/kg/day, ip preadministered with DSS for 7 days followed by replacement with ultrapure water for 3 days with subsequent compound administration starting from day 4 to 10 and measured on day 11; type: functional, organism-based; settings: dose 20-50 mg/kg/day, time 8.0 day
Mus musculus [23] = assay: as §1, with “disease activity index” for “body weight loss”; type: functional, organism-based; settings: dose 20-50 mg/kg/day, time 8.0 day
Mus musculus [24] = assay: as §1, with “[…]” for “decrease”, “[…]” for “body”, “[…]” for “weight loss”; type: functional, organism-based; settings: dose 20-50 mg/kg/day, time 8.0 day
Mus musculus [25] = assay: as §1, with “reduction” for “decrease”, “histopathological score of colon” for “body weight loss”; type: functional, organism-based; settings: dose 20-50 mg/kg/day, time 8.0 day
Mus musculus [26] = assay: as §1, with “normal morphological appearance of spleen” for “decrease in body weight loss”, “11 by H and E staining based analysis” for “11”; type: functional, organism-based; settings: dose 20-50 mg/kg/day, time 8.0 day
[27] = biological target: T2, Protein cereblon/Cyclic GMP-AMP synthase (Mus musculus) (UniProt Q8C6L5+Q8C7D2); assay: (§2) In vivo inhibition of cGAS signaling pathway in DSS-induced ulcerative colitis C57BL/6 mouse model assessed as reduction in cGAS protein level in colon preadministered with DSS for 7 days followed by replacement with ultrapure water for 3 days with subsequent intraperitoneal compound administration starting from day 4 to 10 and measured on day 11 by Western blot analysis; type: functional, organism-based; settings: dose 20-50 mg/kg/day, route ip, time 8.0 day
T2 sequence (Q8C6L5 whole entry, looked up): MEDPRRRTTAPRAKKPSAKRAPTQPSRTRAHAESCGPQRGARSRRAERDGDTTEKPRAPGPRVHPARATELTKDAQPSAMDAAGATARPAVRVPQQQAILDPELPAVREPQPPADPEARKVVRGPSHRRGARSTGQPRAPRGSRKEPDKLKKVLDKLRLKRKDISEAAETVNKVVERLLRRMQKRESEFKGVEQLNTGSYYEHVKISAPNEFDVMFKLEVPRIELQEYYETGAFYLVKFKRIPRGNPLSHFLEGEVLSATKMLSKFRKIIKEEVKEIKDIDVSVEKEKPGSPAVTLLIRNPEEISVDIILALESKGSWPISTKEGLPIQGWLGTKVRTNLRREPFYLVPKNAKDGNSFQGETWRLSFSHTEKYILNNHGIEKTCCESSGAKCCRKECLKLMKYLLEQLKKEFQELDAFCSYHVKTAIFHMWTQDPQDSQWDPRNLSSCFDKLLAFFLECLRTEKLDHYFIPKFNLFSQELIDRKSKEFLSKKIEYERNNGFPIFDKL
T2 sequence (Q8C7D2 whole entry, looked up): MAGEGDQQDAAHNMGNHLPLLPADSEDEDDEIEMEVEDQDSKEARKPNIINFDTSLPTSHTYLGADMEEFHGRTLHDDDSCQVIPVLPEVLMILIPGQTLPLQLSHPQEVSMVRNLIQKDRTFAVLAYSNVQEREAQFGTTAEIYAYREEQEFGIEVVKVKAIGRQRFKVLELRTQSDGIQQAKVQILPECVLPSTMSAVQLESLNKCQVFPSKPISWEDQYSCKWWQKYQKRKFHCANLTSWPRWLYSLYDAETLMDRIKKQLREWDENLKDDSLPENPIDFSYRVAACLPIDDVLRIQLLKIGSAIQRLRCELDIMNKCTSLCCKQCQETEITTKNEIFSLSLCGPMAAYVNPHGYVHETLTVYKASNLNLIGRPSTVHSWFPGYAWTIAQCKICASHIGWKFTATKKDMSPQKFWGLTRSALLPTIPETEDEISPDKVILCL

[28] = biological target: T2, Protein cereblon/Cyclic GMP-AMP synthase (Mus musculus); assay: as §2, with “STING phosphorylation” for “cGAS protein”; type: functional, organism-based; settings: dose 20-50 mg/kg/day, route ip, time 8.0 day
Mus musculus [29] = assay: as §1, with “reduction” for “decrease”, “IL-6 mRNA level in colon” for “body weight loss”, “11 by qRT-PCR analysis” for “11”; type: functional, organism-based; settings: dose 20-50 mg/kg/day, time 8.0 day
Mus musculus [30] = assay: as §1, with “reduction” for “decrease”, “NET generation by measuring reduction in citH3 level in colon” for “body weight loss”, “11 by Western blot analysis” for “11”; type: functional, organism-based; settings: dose 20-50 mg/kg/day, time 8.0 day

In the case of `Cn1ccc(-c2cc(Cl)c(Cl)c3[nH]c4c(c23)CN(C(=O)CNC(=O)CCCC#Cc2cccc3c2CN(C2CCC(=O)NC2=O)C3=O)CC4)n1` (configuration not stated), the Ratio IC50 (THP1-Lucia ISG) is reported as 3, the DC50 [1] is reported as 900 nM and the Activity ([1]; time 48.0 hrs) is reported as “Dose-dependent-effect”. For the same molecule, the Activity [2] was “inactive”, the inhibition (THP-1 [3]) was “Dose-dependent-effect” and the inhibition (RAW264.7 [4]) was “Dose-dependent-effect”. The inhibition (RAW264.7 [5]) was “Dose-dependent-effect”, the Activity (RAW264.7 [6]) was “Dose-dependent-effect” and the Activity (RAW264.7 [7]) was “Active”. For the same molecule, the Activity (THP-1 [8]) was “Active”, the Activity (THP-1 [9]) was “Active” and the Activity (THP-1 [10]) was “Active”. For the same molecule, the Activity (THP-1 [11]) was “inactive”, the Activity (THP-1 [12]) was “Non-toxic” and the Activity (RAW264.7 [13]) was “Non-toxic”. The Activity (RAW264.7 [14]) was “Toxic”, the Cmax [15] was 1610 ng/mL and the AUC(0-inf) [16] was 531 ng·h/mL. For the same molecule, the Vd [17] was 8.1 L/kg, the half-life [18] was 3 h and the Cmax [19] was 248 ng/mL. The AUC(0-inf) [20] was 2800 ng·h/mL, the MRT last at 24 h [21] was 7.9 h and the Activity (Mus musculus [22]) was “Active”. The Activity (Mus musculus [23]) was “Active”, the Activity (Mus musculus [24]) was “Active” and the Activity (Mus musculus [25]) was “Active”. The Activity (Mus musculus [26]) was “Active”, the inhibition [27] was “Dose-dependent-effect” and the inhibition [28] was “Dose-dependent-effect”. The Activity (Mus musculus [29]) was “Active” and the Activity (Mus musculus [30]) was “Active”.
